Test results reported in ChEMBL document CHEMBL1201862, “PubChem BioAssay data set” (2004).
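Five compound concentrations were applied to cells in 96-well plates for 48 hours; endpoints were derived by simple linear interpolation of the resulting dose-response curve. Abbreviation: GI50, concentration required for 50% inhibition of growth.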 Active and inactive are the calls of the source. Rule as the data show it: active = GI50 up to about 1.1 µM and inactive = higher.

Key:
Experiment in all cases: NCI-60 cell line screen, 48 h
[1] = test system: DU-145
[2] = test system: HCC 2998
[3] = test system: PC-3
[4] = test system: T47D
[5] = test system: HT-29
[6] = test system: KM12
[7] = test system: NCI-H23
[8] = test system: IGROV-1
[9] = test system: SK-MEL-2
[10] = test system: 786-0
[11] = test system: OVCAR-3
[12] = test system: SK-OV-3
[13] = test system: NCI-H522
[14] = test system: MCF7
[15] = test system: MDA-MB-435
[16] = test system: HOP-62
[17] = test system: LOX IMVI
[18] = test system: SNB-19
[19] = test system: SW-620
[20] = test system: Malme-3M

Measured: GI50

CC1=C(C(=O)OC(C)(C)C)C(c2ccc([N+](=O)[O-])cc2)C(C(=O)OC(C)(C)C)=C(C)N1
inactive: [1] 26.9 µM | [2] 13.2 µM | [3] 26.7 µM | [4] 14.7 µM | [5] 19.8 µM | [6] 20.7 µM | [7] 19.6 µM | [8] 16.8 µM | [9] 28.6 µM | [10] 22.1 µM | [11] 20.1 µM | [12] 32.4 µM | [13] 18.5 µM | [14] 16.6 µM | [15] 27.9 µM | [16] 23.4 µM | [17] 18.5 µM | [18] 34.4 µM | [19] 26.9 µM

O=c1[nH]c(=O)n(C2OC(CO)C(O)C2O)c2ncc(-c3ccc(-c4ccccc4)cc3)nc12 (stereo not drawn)
inactive: [1] > 20 µM | [2] > 20 µM | [3] > 20 µM | [4] > 20 µM | [5] > 20 µM | [6] > 20 µM | [7] > 20 µM | [8] > 20 µM | [9] > 20 µM | [20] > 20 µM | [10] > 20 µM | [12] > 20 µM | [13] > 20 µM | [14] > 20 µM | [15] > 20 µM | [16] > 20 µM | [17] > 20 µM | [18] > 20 µM | [19] > 20 µM

COc1cc2oc(=O)ccc2cc1C1OC(=O)C2OC21C (stereo not drawn)
inactive: [1] > 100 µM | [2] > 100 µM | [3] > 100 µM | [4] > 100 µM | [5] > 100 µM | [6] > 100 µM | [7] > 100 µM | [8] > 100 µM | [9] > 100 µM | [20] > 100 µM | [10] > 100 µM | [11] > 100 µM | [12] > 100 µM | [14] > 100 µM | [15] > 100 µM | [16] > 100 µM | [17] > 100 µM | [18] > 100 µM | [19] > 100 µM

CC(C)(C)c1ccc(-n2c3nc(=O)n(-c4ccccc4C(F)(F)F)c(=O)c-3cc3ccccc32)cc1
inactive: [1] 28.1 µM | [2] 14.2 µM | [3] 17 µM | [4] 22.9 µM | [5] 8.32 µM | [6] 16.2 µM | [7] 32.3 µM | [8] 29.1 µM | [9] 14.6 µM | [10] 25.7 µM | [11] 13.6 µM | [13] 16.9 µM | [14] 15.6 µM | [15] 15.6 µM | [16] 18.3 µM | [17] 11.9 µM | [18] 31.8 µM | [19] 25.8 µM

CC(=O)OCC1OC(n2c3c(c(-c4ccc(Cl)cc4)c(C#N)c2=S)C(=O)CC(C)(C)C3)C(OC(C)=O)C(OC(C)=O)C1OC(C)=O (stereo not drawn)
inactive: [1] 50.9 µM | [2] 4.68 µM | [3] 10.9 µM | [4] 6.98 µM | [5] 15.7 µM | [6] 29.7 µM | [7] 28.8 µM | [8] 40.7 µM | [9] 23.4 µM | [20] 43.3 µM | [10] 12.8 µM | [11] 32.7 µM | [13] 4.94 µM | [14] 7.98 µM | [15] 12.7 µM | [16] 42 µM | [17] 7.55 µM | [18] > 45.4 µM | [19] 7.06 µM

Nc1cccc(Nc2nc3ccccc3nc2NS(=O)(=O)c2ccccc2)c1
inactive: [1] 31.5 µM | [2] 15.9 µM | [3] 19.5 µM | [4] 24.7 µM | [5] 27.1 µM | [6] 18.8 µM | [7] 12.9 µM | [8] 24.5 µM | [9] 15.7 µM | [20] 28.6 µM | [10] 29 µM | [11] 17.7 µM | [12] 30.4 µM | [14] 33.6 µM | [15] 23.6 µM | [16] 26.7 µM | [17] 22.7 µM | [18] 19.5 µM | [19] 18.4 µM

[O-]/[N+](=N\c1ccccc1CO)c1ccccc1CO
inactive: [1] > 100 µM | [2] > 100 µM | [3] > 100 µM | [4] > 100 µM | [5] > 100 µM | [6] > 100 µM | [7] > 100 µM | [9] > 100 µM | [20] > 100 µM | [10] > 100 µM | [11] > 100 µM | [12] > 100 µM | [13] > 100 µM | [14] > 100 µM | [15] > 100 µM | [17] > 100 µM | [18] > 100 µM | [19] > 100 µM

C[C@@]12CCC3C1C=C1C(=O)c4cc(O)ccc4C(=O)[C@]1(O2)[C@@]3(C)C=O
inactive: [1] 2.91 µM | [2] 2.97 µM | [3] 7.8 µM | [4] 3.55 µM | [5] 4.67 µM | [6] 4.79 µM | [7] 3.93 µM | [8] 5.55 µM | [9] 8.91 µM | [10] 4.14 µM | [11] 3.72 µM | [12] 10.2 µM | [13] 2.94 µM | [14] 3.52 µM | [15] 3.15 µM | [16] 8.59 µM | [17] 2.57 µM | [18] 8.95 µM | [19] 3.9 µM

O=C1NC(=O)[C@@H](OCC2CCCCC2)[C@@H]2OCC3OC(C(O)C3O)C12 (stereo partly drawn)
inactive: [1] > 100 µM | [2] > 100 µM | [3] > 100 µM | [4] > 100 µM | [5] > 100 µM | [6] > 100 µM | [7] > 100 µM | [8] > 100 µM | [9] > 100 µM | [20] > 100 µM | [10] > 100 µM | [11] > 100 µM | [12] > 100 µM | [14] > 100 µM | [15] > 100 µM | [16] > 100 µM | [17] > 100 µM | [18] > 100 µM | [19] > 100 µM

COc1ccc(CCNC(=O)[C@H]2CCCC[C@@H]2CCO)cc1OC
inactive: [1] > 100 µM | [2] > 100 µM | [3] > 100 µM | [4] > 100 µM | [5] > 100 µM | [6] > 100 µM | [7] > 100 µM | [8] > 100 µM | [9] > 100 µM | [10] > 100 µM | [11] > 100 µM | [12] > 100 µM | [13] > 100 µM | [14] > 100 µM | [15] > 100 µM | [16] > 100 µM | [18] > 100 µM | [19] > 100 µM

CNC(=O)OCc1c(COC(=O)NC)c(-c2ccc(Cl)c(Cl)c2)n2c1SCC2
inactive: [1] 17.2 µM | [2] 19.7 µM | [3] 17.1 µM | [4] 8.81 µM | [5] 10 µM | [6] 17.5 µM | [7] 21 µM | [9] 11.7 µM | [20] 22.7 µM | [10] 16.7 µM | [11] 16.7 µM | [12] 6.21 µM | [13] 8.85 µM | [14] 13 µM | [15] 18 µM | [16] 17.8 µM | [17] 12.4 µM | [18] 29.2 µM | [19] 10.8 µM

CC1OC(OC2C(O)COC(OC3C(C)OC(OC4C(OC(=O)[C@]56CCC(C)(C)C[C@@H]5C5=CCC7[C@@]8(C)C[C@H](O)[C@H](OC9OC(CO)C(O)C(OC%10OC(CO)C(O)C(O)C%10O)C9O)[C@@](C)(CO)[C@@H]8CC[C@@]7(C)[C@]5(C)CC6)OCC(O)C4O)C(O)C3OC3OCC(O)(CO)C3O)C2O)C(O)C(O)C1O (stereo partly drawn)
inactive: [1] 8.28 µM | [2] 8.09 µM | [3] 6 µM | [4] 6.92 µM | [6] 9.48 µM | [7] 5.87 µM | [20] 5 µM | [10] 8.09 µM | [11] 9.64 µM | [12] 9.29 µM | [13] 7.96 µM | [14] 12.4 µM | [15] 11.5 µM | [16] 9.95 µM | [17] 8.51 µM | [18] 8.89 µM | [19] 6.43 µM

COC(=O)C1=C(C(=O)OC)C2(C)CCC(=O)C1O2 (stereo not drawn)
inactive: [1] > 10 µM | [2] > 10 µM | [3] > 10 µM | [4] > 10 µM | [5] > 10 µM | [6] > 10 µM | [7] > 10 µM | [8] > 10 µM | [9] > 10 µM | [20] > 10 µM | [10] > 10 µM | [11] > 10 µM | [12] > 10 µM | [14] > 10 µM | [15] > 10 µM | [16] > 10 µM | [17] > 10 µM | [18] > 10 µM | [19] > 10 µM

CC(=O)C(C(=O)C(C)(C)C)C(=O)C(C)(C)C
inactive: [1] > 100 µM | [2] > 100 µM | [3] > 100 µM | [4] > 100 µM | [6] > 100 µM | [9] > 100 µM | [20] > 100 µM | [10] > 100 µM | [12] > 100 µM | [13] > 100 µM | [14] > 100 µM | [15] > 100 µM | [16] > 100 µM | [17] > 100 µM | [18] > 100 µM | [19] > 100 µM
